# In ChEMBL document CHEMBL5724914, “Linking interpersonal differences in gut microbiota composition and drug biotransformation activity” (2024):
# Experiment: (§1) The drug is tested on Z-019 corresponding to rat gut metagenome with ENA study accession number: PRJEB37062 and ENA sample accession number: ERS12561818 for biotransformation under anaerobic condition. The drug concentrations were measured over 9 timepoints collected between 0 and 24 hours of incubation by liquid-chromatography-coupled mass spectrometry (LC–MS)
# Details: 2 µM
# Note: call rule not given here.
row,SMILES,Bacterial Biotransformation
1,CCN(CC)CCOCCOC(=O)C1(c2ccccc2)CCCC1.O=C(O)CC(O)(CC(=O)O)C(=O)O [CARBETAPENTANE CITRATE],Compound NOT metabolized
2,O=P(O)(O)O.c1ccc(CN(CC2=NCCN2)c2ccccc2)cc1 [ANTAZOLINE PHOSPHATE],Compound NOT metabolized

# Experiment: as §1, with “on Z-017” for “on Z-019”, “to mouse” for “to rat”, “number: ERS12561816” for “number: ERS12561818”
# Details: 2 µM
row,SMILES,Bacterial Biotransformation
1,CCN(CC)CCOCCOC(=O)C1(c2ccccc2)CCCC1.O=C(O)CC(O)(CC(=O)O)C(=O)O [CARBETAPENTANE CITRATE],Compound NOT metabolized
2,O=P(O)(O)O.c1ccc(CN(CC2=NCCN2)c2ccccc2)cc1 [ANTAZOLINE PHOSPHATE],Compound NOT metabolized

# Experiment: as §1, with “on Z-016” for “on Z-019”, “to mouse” for “to rat”, “number: ERS12561815” for “number: ERS12561818”
# Details: 2 µM
row,SMILES,Bacterial Biotransformation
1,CCN(CC)CCOCCOC(=O)C1(c2ccccc2)CCCC1.O=C(O)CC(O)(CC(=O)O)C(=O)O [CARBETAPENTANE CITRATE],Compound metabolized
2,O=P(O)(O)O.c1ccc(CN(CC2=NCCN2)c2ccccc2)cc1 [ANTAZOLINE PHOSPHATE],Compound NOT metabolized

# Experiment: as §1, with “Z-014” for “Z-019”, “ERS12561814” for “ERS12561818”
# Details: 2 µM
row,SMILES,Bacterial Biotransformation
1,CCN(CC)CCOCCOC(=O)C1(c2ccccc2)CCCC1.O=C(O)CC(O)(CC(=O)O)C(=O)O [CARBETAPENTANE CITRATE],Compound NOT metabolized
2,O=P(O)(O)O.c1ccc(CN(CC2=NCCN2)c2ccccc2)cc1 [ANTAZOLINE PHOSPHATE],Compound NOT metabolized

# Experiment: as §1, with “on Z-013” for “on Z-019”, “to rabbit” for “to rat”, “number: ERS12561813” for “number: ERS12561818”
# Details: 2 µM
row,SMILES,Bacterial Biotransformation
1,CCN(CC)CCOCCOC(=O)C1(c2ccccc2)CCCC1.O=C(O)CC(O)(CC(=O)O)C(=O)O [CARBETAPENTANE CITRATE],Compound NOT metabolized
2,O=P(O)(O)O.c1ccc(CN(CC2=NCCN2)c2ccccc2)cc1 [ANTAZOLINE PHOSPHATE],Compound NOT metabolized

# Experiment: as §1, with “Z-008” for “Z-019”, “to” for “to rat gut”, “ERS12561808” for “ERS12561818”
# Details: 2 µM
row,SMILES,Bacterial Biotransformation
1,CCN(CC)CCOCCOC(=O)C1(c2ccccc2)CCCC1.O=C(O)CC(O)(CC(=O)O)C(=O)O [CARBETAPENTANE CITRATE],Compound NOT metabolized
2,O=P(O)(O)O.c1ccc(CN(CC2=NCCN2)c2ccccc2)cc1 [ANTAZOLINE PHOSPHATE],Compound NOT metabolized

# Experiment: as §1, with “on WLS-310” for “on Z-019”, “to human” for “to rat”, “number: ERS12561785” for “number: ERS12561818”
# Details: 2 µM
row,SMILES,Bacterial Biotransformation
1,CCN(CC)CCOCCOC(=O)C1(c2ccccc2)CCCC1.O=C(O)CC(O)(CC(=O)O)C(=O)O [CARBETAPENTANE CITRATE],Compound metabolized
2,O=P(O)(O)O.c1ccc(CN(CC2=NCCN2)c2ccccc2)cc1 [ANTAZOLINE PHOSPHATE],Compound NOT metabolized

# Experiment: as §1, with “on WLS-220” for “on Z-019”, “to human” for “to rat”, “number: ERS12561769” for “number: ERS12561818”
# Details: 2 µM
row,SMILES,Bacterial Biotransformation
1,CCN(CC)CCOCCOC(=O)C1(c2ccccc2)CCCC1.O=C(O)CC(O)(CC(=O)O)C(=O)O [CARBETAPENTANE CITRATE],Compound metabolized
2,O=P(O)(O)O.c1ccc(CN(CC2=NCCN2)c2ccccc2)cc1 [ANTAZOLINE PHOSPHATE],Compound metabolized

# Experiment: as §1, with “on WLS-086” for “on Z-019”, “to human” for “to rat”, “number: ERS12561752” for “number: ERS12561818”
# Details: 2 µM
row,SMILES,Bacterial Biotransformation
1,CCN(CC)CCOCCOC(=O)C1(c2ccccc2)CCCC1.O=C(O)CC(O)(CC(=O)O)C(=O)O [CARBETAPENTANE CITRATE],Compound NOT metabolized
2,O=P(O)(O)O.c1ccc(CN(CC2=NCCN2)c2ccccc2)cc1 [ANTAZOLINE PHOSPHATE],Compound metabolized

# Experiment: as §1, with “on WLS-073” for “on Z-019”, “to human” for “to rat”, “number: ERS12561749” for “number: ERS12561818”
# Details: 2 µM
row,SMILES,Bacterial Biotransformation
1,CCN(CC)CCOCCOC(=O)C1(c2ccccc2)CCCC1.O=C(O)CC(O)(CC(=O)O)C(=O)O [CARBETAPENTANE CITRATE],Compound metabolized
2,O=P(O)(O)O.c1ccc(CN(CC2=NCCN2)c2ccccc2)cc1 [ANTAZOLINE PHOSPHATE],Compound NOT metabolized

# Experiment: as §1, with “on WLS-038” for “on Z-019”, “to human” for “to rat”, “number: ERS12561745” for “number: ERS12561818”
# Details: 2 µM
row,SMILES,Bacterial Biotransformation
1,CCN(CC)CCOCCOC(=O)C1(c2ccccc2)CCCC1.O=C(O)CC(O)(CC(=O)O)C(=O)O [CARBETAPENTANE CITRATE],Compound metabolized
2,O=P(O)(O)O.c1ccc(CN(CC2=NCCN2)c2ccccc2)cc1 [ANTAZOLINE PHOSPHATE],Compound NOT metabolized

# Experiment: as §1, with “on WLS-007” for “on Z-019”, “to human” for “to rat”, “number: ERS12561742” for “number: ERS12561818”
# Details: 2 µM
row,SMILES,Bacterial Biotransformation
1,CCN(CC)CCOCCOC(=O)C1(c2ccccc2)CCCC1.O=C(O)CC(O)(CC(=O)O)C(=O)O [CARBETAPENTANE CITRATE],Compound NOT metabolized
2,O=P(O)(O)O.c1ccc(CN(CC2=NCCN2)c2ccccc2)cc1 [ANTAZOLINE PHOSPHATE],Compound metabolized

# Details: human gut metagenome, 24 h, 2 µM
row,SMILES,Bacterial Biotransformation
1,CCN(CC)CCOCCOC(=O)C1(c2ccccc2)CCCC1.O=C(O)CC(O)(CC(=O)O)C(=O)O [CARBETAPENTANE CITRATE],Compound metabolized
2,O=P(O)(O)O.c1ccc(CN(CC2=NCCN2)c2ccccc2)cc1 [ANTAZOLINE PHOSPHATE],Compound NOT metabolized

# Details: human gut metagenome, 24 h, 2 µM
# Remark: another data set of the same source
row,SMILES,Bacterial Biotransformation
1,CCN(CC)CCOCCOC(=O)C1(c2ccccc2)CCCC1.O=C(O)CC(O)(CC(=O)O)C(=O)O [CARBETAPENTANE CITRATE],Compound metabolized
2,O=P(O)(O)O.c1ccc(CN(CC2=NCCN2)c2ccccc2)cc1 [ANTAZOLINE PHOSPHATE],Compound NOT metabolized

# Details: human gut metagenome, 24 h, 2 µM
# Remark: another data set of the same source
row,SMILES,Bacterial Biotransformation
1,CCN(CC)CCOCCOC(=O)C1(c2ccccc2)CCCC1.O=C(O)CC(O)(CC(=O)O)C(=O)O [CARBETAPENTANE CITRATE],Compound metabolized
2,O=P(O)(O)O.c1ccc(CN(CC2=NCCN2)c2ccccc2)cc1 [ANTAZOLINE PHOSPHATE],Compound NOT metabolized

# Details: human gut metagenome, 24 h, 2 µM
# Remark: another data set of the same source
row,SMILES,Bacterial Biotransformation
1,CCN(CC)CCOCCOC(=O)C1(c2ccccc2)CCCC1.O=C(O)CC(O)(CC(=O)O)C(=O)O [CARBETAPENTANE CITRATE],Compound NOT metabolized
2,O=P(O)(O)O.c1ccc(CN(CC2=NCCN2)c2ccccc2)cc1 [ANTAZOLINE PHOSPHATE],Compound NOT metabolized

# Details: human gut metagenome, 24 h, 2 µM
# Remark: another data set of the same source
row,SMILES,Bacterial Biotransformation
1,CCN(CC)CCOCCOC(=O)C1(c2ccccc2)CCCC1.O=C(O)CC(O)(CC(=O)O)C(=O)O [CARBETAPENTANE CITRATE],Compound NOT metabolized
2,O=P(O)(O)O.c1ccc(CN(CC2=NCCN2)c2ccccc2)cc1 [ANTAZOLINE PHOSPHATE],Compound NOT metabolized

# Details: human gut metagenome, 24 h, 2 µM
# Remark: another data set of the same source
row,SMILES,Bacterial Biotransformation
1,CCN(CC)CCOCCOC(=O)C1(c2ccccc2)CCCC1.O=C(O)CC(O)(CC(=O)O)C(=O)O [CARBETAPENTANE CITRATE],Compound metabolized
2,O=P(O)(O)O.c1ccc(CN(CC2=NCCN2)c2ccccc2)cc1 [ANTAZOLINE PHOSPHATE],Compound NOT metabolized

# Details: human gut metagenome, 24 h, 2 µM
# Remark: another data set of the same source
row,SMILES,Bacterial Biotransformation
1,CCN(CC)CCOCCOC(=O)C1(c2ccccc2)CCCC1.O=C(O)CC(O)(CC(=O)O)C(=O)O [CARBETAPENTANE CITRATE],Compound metabolized
2,O=P(O)(O)O.c1ccc(CN(CC2=NCCN2)c2ccccc2)cc1 [ANTAZOLINE PHOSPHATE],Compound metabolized

# Details: human gut metagenome, 24 h, 2 µM
# Remark: another data set of the same source
row,SMILES,Bacterial Biotransformation
1,CCN(CC)CCOCCOC(=O)C1(c2ccccc2)CCCC1.O=C(O)CC(O)(CC(=O)O)C(=O)O [CARBETAPENTANE CITRATE],Compound metabolized
2,O=P(O)(O)O.c1ccc(CN(CC2=NCCN2)c2ccccc2)cc1 [ANTAZOLINE PHOSPHATE],Compound metabolized
